Counter-ions that a name gives are not always drawn.
How the values were obtained:
[1] = target: T1, proMMP9(67-444;ΔFnII) (SEQ ID NO:5) (Homo sapiens, UniProt P14780, DEL216-390); assay: ThermoFluor binding assay with proMMP9(67-444;ΔFnII); conditions: pH 7.0
T1 construct: start methionine (N); made in house; host or cells: E. coli BL21(DE3) RIL
T1 sequence (P14780 with tags, fused parts or gaps DEL216-390): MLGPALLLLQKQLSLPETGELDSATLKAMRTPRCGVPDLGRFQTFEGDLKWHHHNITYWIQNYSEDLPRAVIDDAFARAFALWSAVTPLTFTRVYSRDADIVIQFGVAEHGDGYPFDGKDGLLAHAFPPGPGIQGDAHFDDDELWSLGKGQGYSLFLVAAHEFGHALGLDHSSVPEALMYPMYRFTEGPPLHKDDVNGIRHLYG
How it was run: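 Thermal shift binding with 3.5 μM proMMP9(67-444;ΔFnII) and 50 μM 1,8-ANS in 50 mM HEPES pH 7.0, 100 mM NaCl, 2.5 mM MgCl2, 300 μM CaCl2, 0.001% Tween-20, with serially diluted compound. Heated 40 to 90° C at 1° C/min; fluorescence-derived Tm fitted using DSC/ThermoFluor thermodynamic parameters.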

[2] = target: T2, full-length proMMP9(1-707) (SEQ ID NO:1) (Homo sapiens, UniProt P14780, R574P); assay: proMMP9/MMP3 P126 Activation Assay; assay type: biochemical; conditions: 20 nM proMMP9, 20 nM MMP3, 80 min 37° C.
T2 construct: made in house; host or cells: HEK293 (proMMP9, secreted); E. coli (MMP3)
Protocol: The reaction volume was 50 μL. […] Reactivity of residual MMP3 towards P-126 substrate was minimal under these conditions.

[3] = target: proMMP13(1-268) (SEQ ID NO:7) (Homo sapiens, UniProt P45452); assay: ThermoFluor binding assay with proMMP13(1-268); parameters: 6xHis (C); made in house; conditions: pH 7.0
Protocol: The ThermoFluor® (TF) assay is a 384-well plate-based binding assay that measures thermal stability of proteins (Biomol Screen 2001, 6, 429-40; Biochemistry 2005, 44, 5258-66). The experiments were carried out using instruments available from Johnson & Johnson Pharmaceutical Research & Development, LLC. TF dye used in all experiments was […] (1,8-ANS) (Invitrogen: A-47).
Compounds were arranged in a pre-dispensed plate (Greiner Bio-one: 781280), wherein compounds were serially diluted in 100% DMSO across 11 columns within a series. Columns 12 and 24 were used as DMSO reference and contained no compound. For multiple compound concentration-response experiments, the compound aliquots ([…]) were robotically predispensed directly into black 384-well polypropylene PCR microplates (Abgene: TF-0384/k) using a Cartesian Hummingbird liquid handler (DigiLab, Holliston, Mass.). Following compound dispense, protein and dye solutions were added to achieve the final assay volume of 3 μL. The assay solutions were overlayed with 1 μL of silicone oil (Fluka, type DC 200: 85411) to prevent evaporation.
Assay plates were robotically loaded onto a thermostatically controlled PCR-type thermal block and then heated from 40 to 90° C. at a ramp-rate of 1° C./min for all experiments. Fluorescence was measured by continuous illumination with UV light (Hamamatsu LC6) supplied via fiber optics and filtered through a band-pass filter (380-400 nm; >6 OD cutoff). Fluorescence emission of the entire 384-well plate was detected by measuring light intensity using a CCD camera (Sensys, Roper Scientific) filtered to detect 500±25 nm, resulting in simultaneous and independent readings of all 384 wells. A single image with 20-sec exposure time was collected at each temperature, and the sum of the pixel intensity in a given area of the assay plate was recorded vs temperature and fit to standard equations to yield the Tm (J Biomol Screen 2001, 6, 429-40).
Thermodynamic parameters necessary for fitting compound binding for each proMMP were estimated by differential scanning calorimetry (DSC) and from ThermoFluor® data. The heat capacity of unfolding for each protein was estimated from the molecular weight and from ThermoFluor® dosing data.
The proMMP13(1-268) (SEQ ID NO:7) protein sample preparations included a desalting buffer exchange step via a PD-10 gravity column (GE Healthcare). The desalting buffer exchange was performed prior to diluting the protein to the final assay concentration of 3.5 μM. The concentration of proMMP13(1-268) (SEQ ID NO:7) was estimated spectrophotometrically based on a calculated extinction coefficient of ε280=37000 M^−1cm^−1, a calculated molecular weight of 30.8 kDa, and calculated pI of 5.33. ThermoFluor® reference conditions were defined as follows: 100 μg/mL proMMP13(1-268) (SEQ ID NO:7), 25 μM 1,8-ANS, pH 7.0 Buffer (50 mM HEPES pH 7.0, 100 mM NaCl, 0.001% Tween-20, 2.5 mM MgCl2, 300 μM CaCl2). The thermodynamic parameters for proMMP13(1-268) (SEQ ID NO:7) are as follows: Tm (° C.)=67 (+/−0.1), ΔUH(Tm) (cal mol^−1)=107000(+/−5000), ΔUS(Tm) (cal mol^−1 K^−1)=318, ΔUCp (cal mol^−1 K^−1)=2600.

[4] = target: T3, proMMP9(20-445;ΔFnII) (SEQ ID NO:6) (Homo sapiens, UniProt P14780, DEL216-390); assay: ThermoFluor binding assay with proMMP9(20-445;ΔFnII); conditions: pH 7.0
T3 construct: start methionine (N); made in house; host or cells: E. coli BL21(DE3) RIL
T3 sequence (P14780 with tags, fused parts or gaps DEL216-390): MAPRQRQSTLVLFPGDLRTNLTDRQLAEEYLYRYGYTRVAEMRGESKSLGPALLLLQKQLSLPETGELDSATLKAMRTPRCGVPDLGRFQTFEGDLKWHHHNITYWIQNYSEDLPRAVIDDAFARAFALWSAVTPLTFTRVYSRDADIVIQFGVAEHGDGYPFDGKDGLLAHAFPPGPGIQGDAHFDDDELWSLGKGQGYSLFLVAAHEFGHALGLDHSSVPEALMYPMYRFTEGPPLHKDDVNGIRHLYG
How it was run: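 proMMP9(20-445;ΔFnII) at 2.8 μM with 50 μM 1,8-ANS in 50 mM HEPES pH 7.0, 100 mM NaCl, 0.001% Tween-20, 2.5 mM MgCl2, 300 μM CaCl2; compounds serially diluted in DMSO. Heated 40–90 °C at 1 °C/min, fluorescence read at 500±25 nm. Tm fit by standard equations; binding fit using DSC/TF-derived thermodynamic parameters.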

T2 sequence (P14780 20-707 R574P): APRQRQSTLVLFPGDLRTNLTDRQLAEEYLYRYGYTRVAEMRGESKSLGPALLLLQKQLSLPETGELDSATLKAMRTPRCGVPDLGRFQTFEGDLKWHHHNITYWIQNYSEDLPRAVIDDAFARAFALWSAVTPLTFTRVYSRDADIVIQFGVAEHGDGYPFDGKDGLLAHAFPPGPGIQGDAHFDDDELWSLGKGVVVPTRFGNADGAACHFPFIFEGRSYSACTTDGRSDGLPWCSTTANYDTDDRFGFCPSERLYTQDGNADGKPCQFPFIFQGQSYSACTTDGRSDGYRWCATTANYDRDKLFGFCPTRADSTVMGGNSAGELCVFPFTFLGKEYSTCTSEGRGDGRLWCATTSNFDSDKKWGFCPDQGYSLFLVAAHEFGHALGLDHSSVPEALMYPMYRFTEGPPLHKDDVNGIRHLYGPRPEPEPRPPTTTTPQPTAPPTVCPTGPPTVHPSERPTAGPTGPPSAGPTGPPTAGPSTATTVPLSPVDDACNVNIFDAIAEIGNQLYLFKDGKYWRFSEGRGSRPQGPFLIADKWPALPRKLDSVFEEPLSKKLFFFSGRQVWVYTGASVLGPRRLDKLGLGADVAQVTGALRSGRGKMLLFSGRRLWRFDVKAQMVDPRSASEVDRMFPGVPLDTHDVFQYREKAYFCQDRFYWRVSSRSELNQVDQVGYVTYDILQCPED

| SMILES | Kd [1] [µM] | IC50 [2] [µM] | Kd [3] [µM] | Kd [4] [µM] |
| --- | --- | --- | --- | --- |
| CCOc1ccc(C(N)=O)cc1Nc1nc(-c2sc(C)nc2C)cs1 [Example 6, 3-(2′,4′-Dimethyl-[4,5′]bithiazolyl-2-ylamino)-4-ethoxy-benzamide.TFA] | 0.58 | 0.16 | 2 | 0.2 |
| CCOc1ccc(C(N)=O)cc1Nc1nc(-c2sc(N)nc2C)cs1 [Example 7, 3-(2′-Amino-4′-methyl-[4,5′]bithiazolyl-2-ylamino)-4-ethoxy-benzamide] | 0.34 | 0.26 | 1.4 | 0.089 |
| CCOc1ccc(C(N)=O)cc1Nc1nc(-c2sc(NC(C)=O)nc2C)cs1 [Example 8, 3-(2′-Acetylamino-4′-methyl-[4,5′]bithiazolyl-2-ylamino)-4-ethoxy-benzamide.TFA] | 0.56 | 0.1 | 39 | 1.3 |
| CCCOc1ccc(C(N)=O)cc1Nc1nc(-c2sc(C)nc2C)cs1 [Example 13, 3-(2′,4′-Dimethyl-[4,5′]bithiazolyl-2-ylamino)-4-propoxy-benzamide] | 5.1 | 6.1 | 7 | 0.83 |
| Cc1nc(C)c(-c2csc(Nc3cc(C(N)=O)ccc3OC3CCCC3)n2)s1 [Example 15, 4-Cyclopentyloxy-3-(2′,4′-dimethyl-[4,5′]bithiazolyl-2-ylamino)-benzamide] | > 95 | > 20 | 13 | 7.9 |
| Cc1nc(C)c(-c2csc(Nc3cc(C(N)=O)ccc3OC(F)(F)F)n2)s1 [Example 17, 3-(2′,4′-Dimethyl-[4,5′]bithiazolyl-2-ylamino)-4-trifluoromethoxy-benzamide] | 0.73 | 0.46 | 12 | 0.082 |
| COc1ccc(C(N)=O)cc1Nc1nc(-c2sc(C)nc2C)cs1 [Example 18, 3-(2′,4′-Dimethyl-[4,5′]bithiazolyl-2-ylamino)-4-methoxy-benzamide.HBr] | 0.84 | 0.69 | 14 | 0.34 |
| Cc1ccc(C(N)=O)cc1Nc1nc(-c2sc(N)nc2C)cs1 [Example 25, 3-(2′-Amino-4′-methyl-[4,5′]bithiazolyl-2-ylamino)-4-methyl-benzamide.HBr] | 6.8 | 4.6 | 31 | 2.7 |
| CC(=O)Nc1nc(C)c(-c2csc(Nc3cc(C(N)=O)ccc3Cl)n2)s1 [Example 26, 3-(2′-Acetylamino-4′-methyl-[4,5′]bithiazolyl-2-ylamino)-4-chloro-benzamide.HBr] | 3 | > 20 | 84 | 8.9 |
| Cc1nc(C)c(-c2csc(Nc3cc(C(N)=O)ccc3OCC(C)C)n2)s1 [Example 28, 3-(2′,4′-Dimethyl-[4,5′]bithiazolyl-2-ylamino)-4-isobutoxy-benzamide] | > 95 | > 20 | 56 | 11 |
| Cc1cc2cccc(Nc3nc(-c4sc(C)nc4C)cs3)c2o1 [Example 29, (2′,4′-Dimethyl-[4,5′]bithiazolyl-2-yl)-(2-methyl-benzofuran-7-yl)-amine] | > 95 | 3.8 | > 95 | 61 |
| COc1ccc(CC(N)=O)cc1Nc1nc(-c2sc(C)nc2C)cs1 [Example 30, 2-[3-(2′,4′-Dimethyl-[4,5′]bithiazolyl-2-ylamino)-4-methoxy-phenyl]-acetamide] | 4.9 | 4.1 | > 95 | 18 |
| COc1cc2c(cc1Nc1nc(-c3sc(C)nc3C)cs1)C(=O)NC2 [Example 31, 6-(2′,4′-Dimethyl-[4,5′]bithiazolyl-2-ylamino)-5-methoxy-2,3-dihydro-isoindol-1-one] | 33 | ~7 | 49 | 9 |
| Cc1nc(NC(=O)C2CCN(C)CC2)sc1-c1csc(Nc2cc(C(N)=O)ccc2OC(C)C)n1 [Example 32, 1-Methyl-piperidine-4-carboxylic acid [2-(5-carbamoyl-2-isopropoxy-phenylamino)-4′-methyl-[4,5′]bithiazolyl-2′-yl]-amide] | 0.25 | 0.15 | 1.9 | 0.72 |
| Cc1nc(C)c(-c2csc(Nc3cc(S(N)(=O)=O)cc4c3OCC4)n2)s1 [Example 33, 7-(2′,4′-Dimethyl-[4,5′]bithiazolyl-2-ylamino)-2,3-dihydro-benzofuran-5-sulfonic acid amide] | > 95 | 7.3 | 2.9 | 13 |
| COc1c(F)cc(C(N)=O)cc1Nc1nc(-c2sc(C)nc2C)cs1 [Example 34, 3-(2′,4′-Dimethyl-[4,5′]bithiazolyl-2-ylamino)-5-fluoro-4-methoxy-benzamide] | 12 | 9 | 28 | 7.8 |
| COc1cc(C)c(C(N)=O)cc1Nc1nc(-c2sc(C)nc2C)cs1 [Example 36, 5-(2′,4′-Dimethyl-[4,5′]bithiazolyl-2-ylamino)-4-methoxy-2-methyl-benzamide.TFA] | 27 | 0.67 | 11 | 0.85 |
| COc1ccc(C#N)cc1Nc1nc(-c2sc(C)nc2C)cs1 [Example 39, 3-(2′,4′-Dimethyl-[4,5′]bithiazolyl-2-ylamino)-4-methoxy-benzonitrile.TFA] | 1.4 | 0.76 | > 95 | 1.1 |
| COc1ccc(C#N)cc1Nc1nc(-c2sc(N)nc2C)cs1 [Example 40, 3-(2′-Amino-4′-methyl-[4,5′]bithiazolyl-2-ylamino)-4-methoxy-benzonitrile.HBr] | 0.31 | 0.9 | 1.5 | 0.99 |

From US20120129842A1, “BISTHIAZOLE INHIBITORS OF PRO-MATRIX METALLOPROTEINASE ACTIVATION” (priority 2010, published 2012)
